Laboratory results reported in publication PMC11594562, “Novel Peptide–Drug Conjugates with Dual Anticancer Activity” (International Journal of Molecular Sciences, 2024).
Read-outs that look alike come from different tables or passages of the source. Residues, ends and D or L forms follow the SMILES beside them.

How the values were obtained:
[1] = Solubility in water / DMSO; assay type: physicochemical; conditions: water vs DMSO
Text: Three wells were used for each concentration.

TDP1 = biological target: T1, TDP1 (Homo sapiens, UniProt Q9NUW8); assay: biochemical; assay type: biochemical; conditions: for Increase in TDP1 IC50 compared to parent TDP1 inhibitor: conjugate 7 vs 4, conjugate 8 vs 5
T1 construct: made in house; host or cells: E. coli
Description: These conjugates and their individual components were tested in a real-time fluorescent assay of TDP1 inhibition.
Recombinant TDP1 protein was expressed in E. coli (the pET 16B plasmid containing TDP1 cDNA was kindly provided by Dr. K.W. Caldecott, University of Sussex, United Kingdom) and isolated as described in [60]. The final volume (200 μL) of the reaction mixture contained TDP1 reaction buffer (50 mM Tris-HCl, pH 8.0, 50 mM NaCl, 7 mM β-mercaptoethanol), 50 nM oligonucleotide substrate, and varied concentrations of the tested compounds. Purified TDP1 was added at a final concentration of 1.5 nM. The TDP1 reaction mixtures were incubated at a constant temperature of 26 °C in a POLARstar OPTIMA fluorimeter (BMG LABTECH, Offenburg, Germany). The fluorescence intensity was measured (Ex. 485/Em. 520 nm) every 1 min for 10 minutes. The efficiency of TDP1 inhibition was evaluated by comparing the rate of increase in the fluorescence of the biosensor in the presence of compound 4 or 5 to that of DMSO (1.5%) in control wells. IC50 values were determined using an eleven-point concentration response curve by MARS Data Analysis 2.0 (BMG LABTECH), and the slope during the linear phase was calculated. The IC50 measurements were carried out in at least three independent experiments.

Vero cells = assay: MTT cytotoxicity assay, non-malignant Vero cells; conditions: Vero, 48 h, MTT
Text: (§1) Against the T98G glioblastoma cells, the conjugation yields activities that are intermediate between those of the usnic acid and peptide components for both the hydrazinothiazole- and benzylidenefuranone-based candidates (4 and 5, respectively).
(§2) Human cancer cells of the SNB19, T98G (cells of human glioblastoma), and MCF-7 (adenocarcinoma) lines, along with cells derived from the kidney of an African green monkey (Vero), were used in this study. These cell lines were obtained from the cell collection of the State Research Center for Virology and Biotechnology “Vector” of Rospotrebnadzor, Koltsovo, Novosibirsk Region. They were cultured in DMEM/F12 medium containing 10% foetal bovine serum, L-glutamine (2 mmol/L), and gentamicin (80 µg/mL) in a CO2 incubator at 37 °C. The tested compounds were dissolved in DMSO (4 and 5) or H2O (6, 7, and 8) and added to the cellular culture at the required concentrations. Three wells were used for each concentration. The cells that were incubated without the compounds were used as controls. Cells were placed in 96-well microplates and cultivated at 37 °C in 5% CO2/95% air for 48 h. The cell viability was assessed through an MTT [3-(4,5-dimethylthiazol-2-yl)-2,5-phenyl-2H-tetrazolium bromide] conversion assay, where 1% MTT was added to each well. Four hours later, the medium was removed, leaving the formazan crystals, and isopropanol was added and mixed for 15 min. The optical density of the samples was measured on a TECAN Sunrise multi-well spectrophotometer at a wavelength of 570 nm, with a reference of 670 nm. The 50% cytotoxic dose (GI50) of each compound (i.e., the compound concentration that lowers the amount of cells to 50% in a culture, or decreases the optical density twofold as compared to the control wells) was calculated from the obtained data. Statistical processing of the results was performed using the Microsoft Excel-2007, […] 6.0, and GraphPad Prism 5.0 programs.

[2] = MTT cytotoxicity assay, non-malignant Vero cells; conditions: African green monkey
Text: as §1, §2

T98G glioblastoma cells = assay: MTT cytotoxicity assay, T98G cells; conditions: T98G, 48 h; for GI50: Homo sapiens, read-out: Cytotoxic dose GI50; for Cytotoxic dose GI80 / Cytotoxic dose GI90: MTT
Description: (§3) Next, the conjugates and their parent agents were evaluated in a cytotoxicity assay. Human glioblastoma (SNB19, T98G) and adenocarcinoma (MCF-7) cell lines were used in this study.
as §2

SNB19 glioblastoma cells = assay: MTT cytotoxicity assay, SNB19 cells; conditions: for GI50: Homo sapiens, SNB-19, 48 h, read-out: Cytotoxic dose GI50; for Cytotoxic dose GI80 / Cytotoxic dose GI90: SNB19, 48 h, MTT
Description: as §3, §2

[3] = system: MCF-7 (adenocarcinoma) cells; assay: MTT cytotoxicity assay, MCF-7 cells; conditions: for GI50: Homo sapiens, MCF7, 48 h, read-out: Cytotoxic dose GI50; for Cytotoxic dose GI80 / Cytotoxic dose GI90: MCF-7, 48 h, MTT
Description: as §3, §2

[4] = biological target: Tyrosyl-DNA-phosphodiesterase 1 (TDP1); conditions: Figure 1; cited from earlier work
[5] = MTT cytotoxicity assay, T98G cells; conditions: human
Description: as §3, §2

[6] = MTT cytotoxicity assay, SNB19 cells; conditions: human, SNB19 glioblastoma cells
Description: as §3, §2

[7] = MTT cytotoxicity assay, MCF-7 cells; conditions: human, MCF-7 adenocarcinoma cells
Description: as §3, §2

MCF-7 cells = conditions: native L-K6 sequence; read-out: IC50 (cytotoxicity of native sequence); cited from earlier work
[8] = recombinant TDP1 1.5 nM, 50 nM substrate, 26 °C
[9] = Vero cells (non-malignant kidney cell line)

T1 sequence (Q9NUW8 whole entry): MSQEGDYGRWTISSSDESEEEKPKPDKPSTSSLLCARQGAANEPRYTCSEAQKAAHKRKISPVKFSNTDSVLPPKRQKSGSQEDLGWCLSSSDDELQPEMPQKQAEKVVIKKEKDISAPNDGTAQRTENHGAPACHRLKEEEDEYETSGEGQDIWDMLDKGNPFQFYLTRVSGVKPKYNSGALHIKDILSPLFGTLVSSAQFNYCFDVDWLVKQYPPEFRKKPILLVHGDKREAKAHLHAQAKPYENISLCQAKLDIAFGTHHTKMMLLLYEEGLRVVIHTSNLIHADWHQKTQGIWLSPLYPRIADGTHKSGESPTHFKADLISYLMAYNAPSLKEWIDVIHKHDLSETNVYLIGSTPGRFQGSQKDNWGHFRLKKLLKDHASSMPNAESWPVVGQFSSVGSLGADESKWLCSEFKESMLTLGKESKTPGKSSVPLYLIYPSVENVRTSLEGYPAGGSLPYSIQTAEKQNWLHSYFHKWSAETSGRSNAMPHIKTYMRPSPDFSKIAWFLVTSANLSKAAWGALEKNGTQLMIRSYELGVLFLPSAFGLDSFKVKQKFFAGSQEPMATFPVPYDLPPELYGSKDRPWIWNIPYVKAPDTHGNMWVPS

Molecule	Cytotoxic dose GI80 (Vero cells)	Cytotoxic dose GI90 (Vero cells)	Cytotoxic dose GI80 (T98G glioblastoma cells)	Cytotoxic dose GI90 (T98G glioblastoma cells)	Cytotoxic dose GI80 (SNB19 glioblastoma cells)	Cytotoxic dose GI90 (SNB19 glioblastoma cells)	Cytotoxic dose GI80 [3]	Cytotoxic dose GI90 [3]	IC50 [4]	GI50 at 48 h ([2]; Vero cells)	GI50 at 48 h [5]	GI50 at 48 h [6]	GI50 at 48 h [7]	also measured
CC(=O)C1=C(O)C=C2Oc3c4c(c(C)c(O)c3[C@@]2(C)C1=O)O/C(=C\c1ccc(Br)cc1)C4=O [Compound 5]	>100 µM	>100 µM	>100 µM	>100 µM	>100 µM	>100 µM	3.9 ± 0.87 µM	4.7 ± 1.59 µM	0.15 µM	–	–	–	–	Solubility [1]: require DMSO for solubility; IC50 (TDP1; [8]): 0.15 ± 0.03 µM; GI50 at 48 h [2, 9]: > 100 µM; GI50 (T98G glioblastoma cells): 21 ± 2.6 µM; GI50 (SNB19 glioblastoma cells): > 100 µM; GI50 [3]: 2.2 ± 0.31 µM
CC(=O)C1=C(O)C=C2Oc3c(-c4csc(N/N=C/c5ccc(Br)cc5)n4)c(O)c(C)c(O)c3[C@@]2(C)C1=O [Compound 4]	48 ± 16.76 µM	>100 µM	51 ± 1.08 µM	90 ± 3.94 µM	61 ± 1.78 µM	83 ± 1.87 µM	4.7 ± 0.21 µM	5.5 ± 0.41 µM	0.026 µM	–	–	–	–	Solubility [1]: require DMSO for solubility; IC50 (TDP1): 0.026 ± 0.011 µM; GI50 at 48 h [2, 9]: 4.1 ± 1.66 µM; GI50 (T98G glioblastoma cells): 10.1 ± 0.67 µM; GI50 (SNB19 glioblastoma cells): 20.5 ± 2.27 µM; GI50 [3]: 2.8 ± 0.07 µM
CC(=O)C1=C(O)C=C2Oc3c(C(=O)CSC#N)c(O)c(C)c(O)c3[C@@]2(C)C1=O [Compound 3, reference compound]	–	–	–	–	–	–	–	–	1.16 µM	–	–	–	–	–
CC[C@H](C)[C@H](NC(=O)Cn1nc(C)c2c1C=C1Oc3c4c(c(C)c(O)c3[C@@]1(C)C2=O)O/C(=C\c1ccc(Br)cc1)C4=O)C(=O)N[C@@H](CCCCN)C(=O)N[C@@H](CCCCN)C(=O)N[C@H](C(=O)N[C@@H](CC(C)C)C(=O)N[C@@H](CO)C(=O)N[C@@H](CCCCN)C(=O)N[C@H](C(=O)N[C@@H](CCCCN)C(=O)N[C@@H](CCCCN)C(=O)N[C@@H](CC(C)C)C(=O)N[C@@H](CC(C)C)C(=O)N[C@@H](CCCCN)C(N)=O)[C@@H](C)CC)[C@@H](C)CC [Compound 8] (HELM PEPTIDE1{[Cc1nn(CC(=O)[*:2])c2c1C(=O)[C@@]1(C)C(=C2)Oc2c3c(c(C)c(O)c21)O/C(=C\c1ccc(Br)cc1)C3=O].I.K.K.I.L.S.K.I.K.K.L.L.K.[am]}$$$$V2.0)	>100 µM	>100 µM	80 ± 2.86 µM	>100 µM	56 ± 0.7 µM	85 ± 2.32 µM	72 ± 2.4 µM	>100 µM	–	18 ± 3.18 µM	38 ± 1.22 µM	16.5 ± 0.35 µM	36 ± 1.24 µM	Increase in TDP1 IC50 compared to parent TDP1 inhibitor (TDP1): ~2.3 fold; GI50 at 48 h ([6]; Cytotoxic dose GI50, SNB19, 48 h, MTT): 16 µM
L-K6 (IKKILSKIKKLLK; HELM PEPTIDE1{[NNCC(=O)[*:2]].I.K.K.I.L.S.K.I.K.K.L.L.K.[am]}$$$$V2.0; N-terminus assumed; SMILES CC[C@H](C)[C@H](NC(=O)CNN)C(=O)N[C@@H](CCCCN)C(=O)N[C@@H](CCCCN)C(=O)N[C@H](C(=O)N[C@@H](CC(C)C)C(=O)N[C@@H](CO)C(=O)N[C@@H](CCCCN)C(=O)N[C@H](C(=O)N[C@@H](CCCCN)C(=O)N[C@@H](CCCCN)C(=O)N[C@@H](CC(C)C)C(=O)N[C@@H](CC(C)C)C(=O)N[C@@H](CCCCN)C(N)=O)[C@@H](C)CC)[C@@H](C)CC)	–	–	–	–	–	–	–	–	–	–	–	–	–	IC50 (MCF-7 cells): 23 µM
CC[C@H](C)[C@H](NC(=O)CNN)C(=O)N[C@@H](CCCCN)C(=O)N[C@@H](CCCCN)C(=O)N[C@H](C(=O)N[C@@H](CC(C)C)C(=O)N[C@@H](CO)C(=O)N[C@@H](CCCCN)C(=O)N[C@H](C(=O)N[C@@H](CCCCN)C(=O)N[C@@H](CCCCN)C(=O)N[C@@H](CC(C)C)C(=O)N[C@@H](CC(C)C)C(=O)N[C@@H](CCCCN)C(N)=O)[C@@H](C)CC)[C@@H](C)CC [Compound 6] (HELM PEPTIDE1{[NNCC(=O)[*:2]].I.K.K.I.L.S.K.I.K.K.L.L.K.[am]}$$$$V2.0)	>100 µM	>100 µM	>100 µM	>100 µM	>100 µM	>100 µM	81 ± 16 µM	>100 µM	–	64 ± 13.7 µM	> 100 µM	> 100 µM	39 ± 6.08 µM	IC50 (TDP1; [8]): 1.8 ± 0.6 µM
CC(=O)c1c(O)c(C)c(O)c2c1OC1=CC(=O)/C(=C(/C)NCCCc3cc(C(C)(C)C)c(O)c(C(C)(C)C)c3)C(=O)[C@@]12C [Compound 2, reference compound]	–	–	–	–	–	–	–	–	0.16 µM	–	–	–	–	–
CC[C@H](C)[C@H](NC(=O)Cn1nc(C)c2c1C=C1Oc3c(-c4csc(N/N=C/c5ccc(Br)cc5)n4)c(O)c(C)c(O)c3[C@@]1(C)C2=O)C(=O)N[C@@H](CCCCN)C(=O)N[C@@H](CCCCN)C(=O)N[C@H](C(=O)N[C@@H](CC(C)C)C(=O)N[C@@H](CO)C(=O)N[C@@H](CCCCN)C(=O)N[C@H](C(=O)N[C@@H](CCCCN)C(=O)N[C@@H](CCCCN)C(=O)N[C@@H](CC(C)C)C(=O)N[C@@H](CC(C)C)C(=O)N[C@@H](CCCCN)C(N)=O)[C@@H](C)CC)[C@@H](C)CC [Compound 7] (HELM PEPTIDE1{[Cc1nn(CC(=O)[*:2])c2c1C(=O)[C@@]1(C)C(=C2)Oc2c(-c3csc(N/N=C/c4ccc(Br)cc4)n3)c(O)c(C)c(O)c21].I.K.K.I.L.S.K.I.K.K.L.L.K.[am]}$$$$V2.0)	>100 µM	>100 µM	82 ± 1.78 µM	>100 µM	68 ± 3.34 µM	>100 µM	>100 µM	>100 µM	–	33 ± 3.53 µM	42 ± 3.02 µM	18 ± 0.35 µM	65 ± 15.3 µM	Increase in TDP1 IC50 compared to parent TDP1 inhibitor (TDP1): approximately 6.5 fold
